Measured values as given in US4012516A, “Pharmacologically active compositions” (Burroughs Wellcome Co., priority 1975, dated 1977).
Where two headings read alike, the source gives them in different places.

System: human chopped lung tissue
Test: Inhibition of histamine release from human chopped lung tissue passively sensitized in vitro with reaginic antibody, challenged with homologous antigen
Type: cell-based
Conditions: for inhibition at 0.001 µM: Salbutamol 10^-9 M alone; for inhibition at 0.0001 µM: Salbutamol 10^-10 M alone; for inhibition at 1 µM: Compound (II) 10^-6 M alone
Text: The release of histamine from lung preparations treated in this way is known to be inhibited by both the stimulants and the compounds of formula (I) when used separately, but it has now been shown that their combined effect is greater than was to be expected from a knowledge of the activity of the individual components, and in particular the inhibition is greater than the sum of the individual responses when the components are used separately at the same concentrations. The compounds of formula (I) are represented by the formula [drawing 1] wherein Z is carbonyl (C=O) or oxygen (--O--), and X is carboxy or a 5-tetrazolyl group, and salts thereof with pharmaceutically acceptable cations. Of especial value are:
The experimental procedure used was that using chopped human lung tissue substantially as described in Br. Med. J. 3, 272 (1968).

[1] = Homo sapiens, Experiment A, Compound (II) none, read-out: Percentage Inhibition of Histamine Release
[2] = Homo sapiens, Experiment B, Compound (II) none, read-out: Percentage Inhibition of Histamine Release

SMILES	inhibition at 0.001 µM [1] [%]	inhibition at 0.0001 µM [1] [%]	inhibition at 0.01 µM (Homo sapiens, Experiment B, Salbutamol 10^-8 M alone, Compound (II) none, read-out: Percentage Inhibition of Histamine Release) [%]	inhibition at 0.001 µM [2] [%]	inhibition at 0.0001 µM [2] [%]	Percentage Inhibition of Histamine Release (Experiment A, combination: Compound (II) 10^-6 M + Salbutamol 10^-9 M) [%]	Percentage Inhibition of Histamine Release (Experiment A, combination: Compound (II) 10^-6 M + Salbutamol 10^-10 M) [%]	Percentage Inhibition of Histamine Release (Experiment B, combination: Compound (II) 10^-6 M + Salbutamol 10^-8 M) [%]	Percentage Inhibition of Histamine Release (Experiment B, combination: Compound (II) 10^-6 M + Salbutamol 10^-9 M) [%]	Percentage Inhibition of Histamine Release (Experiment B, combination: Compound (II) 10^-6 M + Salbutamol 10^-10 M) [%]	Percentage Inhibition of Histamine Release (Experiment B, combination: Compound (II) 10^-7 M + Salbutamol 10^-8 M) [%]	Percentage Inhibition of Histamine Release (Experiment B, combination: Compound (II) 10^-7 M + Salbutamol 10^-9 M) [%]	Percentage Inhibition of Histamine Release (Experiment B, combination: Compound (II) 10^-7 M + Salbutamol 10^-10 M) [%]	inhibition at 1 µM (Homo sapiens, Experiment A, Salbutamol none, read-out: Percentage Inhibition of Histamine Release) [%]	inhibition at 1 µM (Homo sapiens, Experiment B, Salbutamol none, read-out: Percentage Inhibition of Histamine Release) [%]	inhibition at 0.1 µM (Homo sapiens, Experiment B, Compound (II) 10^-7 M alone, Salbutamol none, read-out: Percentage Inhibition of Histamine Release) [%]	anti-allergic effect in combination with bronchodilator stimulants (combined with bronchodilators acting directly or indirectly by stimulation)
CC(C)(C)NCC(O)c1ccc(O)c(CO)c1 (stereo not drawn) [Salbutamol, α'-t-butylaminomethyl-4-hydroxy-m-xylene-α',α^3-diol, reference compound]	0	17	27	22	0.9												
O=C1c2ccccc2S(=O)(=O)c2cc(-c3nnn[nH]3)ccc21 [Compound (II), 3-(5-TETRAZOLYL)THIOXANTHONE-10,10-DIOXIDE]						49	58	38	96	-11	64	80.5	-5	15	-14.5	-13	potentiated
